Test [1] has as its target T1, SOS1 catalytic domain (residues 564-1049) (Homo sapiens, UniProt Q07889).
T1 sequence (Q07889 564-1049): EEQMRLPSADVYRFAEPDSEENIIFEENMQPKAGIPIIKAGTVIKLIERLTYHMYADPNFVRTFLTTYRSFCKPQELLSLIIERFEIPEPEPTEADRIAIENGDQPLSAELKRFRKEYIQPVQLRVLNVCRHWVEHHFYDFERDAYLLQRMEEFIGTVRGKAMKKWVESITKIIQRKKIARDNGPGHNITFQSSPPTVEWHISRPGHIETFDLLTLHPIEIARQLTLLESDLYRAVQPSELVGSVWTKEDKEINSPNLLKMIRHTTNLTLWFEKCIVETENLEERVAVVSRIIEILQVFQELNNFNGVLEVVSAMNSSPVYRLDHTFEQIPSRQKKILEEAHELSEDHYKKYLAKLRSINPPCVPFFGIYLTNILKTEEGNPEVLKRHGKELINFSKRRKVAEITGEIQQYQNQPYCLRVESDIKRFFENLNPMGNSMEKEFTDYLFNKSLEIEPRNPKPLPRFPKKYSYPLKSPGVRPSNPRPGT
Briefly: Potency Assay: binding affinity to SOS1 using Surface Plasmon Resonance (SPR). Further details: SOS1 catalytic domain (residues 564-1049) immobilized on a sensor chip. Conditions: immobilized SOS1 catalytic domain (residues 564-1049), read-out: SOS1 SPR Equilibrium Kd. Put shortly: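 Kd was obtained by plotting binding response, taken just before association ended, versus compound concentration on a Biacore 8K. Compounds flowed at 50 μL/min over streptavidin-captured avi-SOS1 catalytic domain (~6000 RU), followed by buffer dissociation; HEPES 0.01 M/NaCl 0.15 M/0.05% P20 buffer, double-referenced.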

In test [2] the target is T1, SOS1 catalytic domain (residues 564-1049). As to the kind of experiment: Mode of Action Assay: inhibition of SOS1 nucleotide exchange activity (SOS1 TR-FRET IC50 Assay). (In general: In TR-FRET formats the signal depends on donor and acceptor labels being close together.)
In test [3] the test system is PC-9 cells (EGFR Ex19Del). As to the kind of experiment: Potency Assay: pERK (SOS1 pERK IC50 Assay, AlphaLISA SureFire Ultra p-ERK1/2). To be noted: Homo sapiens; PC-9 cells (EGFR Ex19Del), 1 hour incubation, AlphaLISA p-ERK1/2; read-out: SOS1 pERK IC50. The format is cell-based. The method in brief: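 Cellular pERK1/2 by AlphaLISA SureFire Ultra after 1 h compound exposure (37° C., highest concentration 10 μM, 3-fold steps, duplicates) of EGFR Ex19Del PC-9 cells seeded the day before. A 4-parameter fit of signal versus log concentration gives IC50.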

Take `Cc1nc2c(c(N[C@H](C)c3cc(N)cc(C(F)(F)F)c3)n1)CN(S(=O)(=O)N1CCOCC1)C2` [Example 37, (R)—N-(1-(3-amino-5-(trifluoromethyl)phenyl)ethyl)-2-methyl-6-(morpholinosulfonyl)-6,7-dihydro-5H-pyrrolo[3,4-d]pyrimidin-4-amine]: the Kd – broadly, a measure of binding affinity in units of concentration – in test [1] is below 400 nM. Further, the IC50 in test [2] and in test [3] was below 1000 nM throughout.

Take `CC(Nc1nc(Cl)nc2c1CN(C(=O)N1CCOCC1)C2)c1cc(O)cc(C(F)(F)F)c1` (stereo not drawn) [Example 40, [2-chloro-4-[1-[3-hydroxy-5-(trifluoromethyl)phenyl]ethylamino]-5,7-dihydropyrrolo[3,4-d]pyrimidin-6-yl]-morpholino-methanone]: the Kd in test [1] was above 400 nM. Further, the IC50 in test [2] and in test [3] was above 1000 nM each time.

As for `Cc1nc2c(c(N[C@H](C)c3cc(N)cc(C(F)(F)F)c3)n1)CC(C(=O)N1CCOCC1)C2` (stereo partly drawn) [Example 45, [4-[[(1R)-1-[3-amino-5-(trifluoromethyl)phenyl]ethyl]amino]-2-methyl-6,7-dihydro-5H-cyclopenta[d]pyrimidin-6-yl]-morpholino-methanone], the Kd in test [1] is above 400 nM. In addition, the IC50 in test [2] and in test [3] was below 1000 nM in each case.

`Cc1nc2c(c(N[C@H](C)c3cc(N)cc(C(F)(F)F)c3)n1)CN(S(C)(=O)=O)C2` [Example 46, (R)—N-(1-(3-amino-5-(trifluoromethyl)phenyl)ethyl)-2-methyl-6-(methylsulfonyl)-6,7-dihydro-5H-pyrrolo[3,4-d]pyrimidin-4-amine]: the Kd in test [1] was above 400 nM. In addition, the half-inhibitory concentration (IC50) in test [2] and in test [3] was above 1000 nM throughout.

Turning to `Cc1nc2c(c(N[C@H](C)c3cc(N)cc(C(F)(F)F)c3)n1)CN(S(=O)(=O)C1CCOCC1)C2` [Example 47, N-[(1R)-1-[3-amino-5-(trifluoromethyl)phenyl]ethyl]-2-methyl-6-tetrahydropyran-4-ylsulfonyl-5,7-dihydropyrrolo[3,4-d]pyrimidin-4-amine], the equilibrium dissociation constant (Kd) in test [1] is below 400 nM. Besides, the IC50 in test [2] and in test [3] was below 1000 nM throughout.

For `C[C@@H](Nc1nc(Cl)nc2c1CN(S(=O)(=O)C1CNC1)C2)c1cc(N)cc(C(F)(F)F)c1` [Example 48], the Kd in test [1] is below 400 nM. Moreover, the half-inhibitory concentration (IC50) (as a rule, the midpoint of a concentration-inhibition curve) was below 1000 nM in test [2] and above 1000 nM in test [3].

Regarding `C[C@@H](Nc1nc(Cl)nc2c1CN(S(=O)(=O)C1CCCNC1)C2)c1cc(N)cc(C(F)(F)F)c1` (stereo partly drawn) [Example 49], in test [1], the equilibrium dissociation constant (Kd) was below 400 nM. Moreover, the 50% inhibitory concentration (IC50) in test [2] and in test [3] was below 1000 nM each time.

On to `C[C@@H](Nc1nc(Cl)nc2c1CN(S(=O)(=O)C1CCOCC1)C2)c1cc(N)cc(C(F)(F)F)c1` [Example 51], for which the equilibrium dissociation constant (Kd) in test [1] is below 400 nM. Further, the IC50 in test [2] and in test [3] was below 1000 nM each time.

Turning to `C[C@@H](Nc1nc(Cl)nc2c1CN(S(=O)(=O)C1CC1)C2)c1cc(N)cc(C(F)(F)F)c1` [Example 52], in test [1], the equilibrium dissociation constant (Kd) is below 400 nM. Also, the IC50 in test [2] and in test [3] was below 1000 nM each time.

For the compound `CC(Nc1nc(Cl)nc2c1CN(C(=O)N1CCOCC1)C2)c1ccc(-c2ccccc2CO)s1` (stereo not drawn) [Example 53, [2-chloro-4-[1-[5-[2-(hydroxymethyl)phenyl]-2-thienyl]ethylamino]-5,7-dihydropyrrolo[3,4-d]pyrimidin-6-yl]-morpholino-methanone], the dissociation constant (Kd) in test [1] was above 400 nM. Also, the IC50 in test [2] and in test [3] was above 1000 nM throughout.

On to `COc1cnc(C(=O)N2Cc3nc(Cl)nc(N[C@H](C)c4cc(N)cc(C(F)(F)F)c4)c3C2)cc1OC` [Example 59], for which the Kd in test [1] was below 400 nM. The IC50 in test [2] and in test [3] was below 1000 nM in each case.

Take `COc1ncc(C(=O)N2Cc3nc(Cl)nc(N[C@H](C)c4cc(N)cc(C(F)(F)F)c4)c3C2)cn1` [Example 60]: in test [1], the Kd is below 400 nM. In addition, the values for the IC50 in test [2] and in test [3] were above 1000 nM and below 1000 nM, respectively.

In the case of `C[C@@H](Nc1nc(Cl)nc2c1CN(C(=O)c1ccc(OC(F)F)cn1)C2)c1cc(N)cc(C(F)(F)F)c1` [Example 61], the Kd in test [1] is below 400 nM. Besides, the IC50 in test [2] was above 1000 nM; in test [3], below 1000 nM.

As for `COc1cc(C(=O)N2Cc3nc(Cl)nc(N[C@H](C)c4cc(N)cc(C(F)(F)F)c4)c3C2)ncn1` [Example 62], the Kd in test [1] was below 400 nM. Moreover, the values for the half-maximal inhibitory concentration (IC50) in test [2] and in test [3] were above 1000 nM and below 1000 nM, respectively.

In the case of `C[C@@H](Nc1nc(Cl)nc2c1CN(C(=O)c1ccccn1)C2)c1cc(N)cc(C(F)(F)F)c1` [Example 65], in test [1], the dissociation constant Kd was above 400 nM. Moreover, the IC50 in test [2] and in test [3] was below 1000 nM throughout.

Turning to `C[C@@H](Nc1nc(Cl)nc2c1CN(C(=O)c1cc(N3CCOCC3)ccn1)C2)c1cc(N)cc(C(F)(F)F)c1` [Example 68], the Kd in test [1] was below 400 nM. Moreover, the half-maximal inhibitory concentration (IC50) in test [2] and in test [3] was below 1000 nM in each case.

As to `C[C@@H](Nc1nc(Cl)nc2c1CN(C(=O)c1ncccn1)C2)c1cc(N)cc(C(F)(F)F)c1` [Example 70], the Kd in test [1] is above 400 nM. Also, the IC50 is above 1000 nM in test [2] and below 1000 nM in test [3].

Take `C[C@@H](Nc1nc(Cl)nc2c1CN(C(=O)c1cccnn1)C2)c1cc(N)cc(C(F)(F)F)c1` [Example 71]: the Kd in test [1] was below 400 nM. The IC50 in test [2] and in test [3] was below 1000 nM each time.

As to `COc1nccc(C(=O)N2Cc3nc(Cl)nc(N[C@H](C)c4cc(N)cc(C(F)(F)F)c4)c3C2)n1` [Example 72], the Kd in test [1] was above 400 nM. Further, the IC50 in test [2] and in test [3] was below 1000 nM in each case.

In the case of `C[C@@H](Nc1nc(Cl)nc2c1CN(C(=O)c1ccncn1)C2)c1cc(N)cc(C(F)(F)F)c1` [Example 73], the equilibrium dissociation constant (Kd) in test [1] is below 400 nM. The 50% inhibitory concentration (IC50) in test [2] and in test [3] was below 1000 nM each time.

On to `COc1nccnc1C(=O)N1Cc2nc(Cl)nc(N[C@H](C)c3cc(N)cc(C(F)(F)F)c3)c2C1` [Example 75], for which the dissociation constant Kd in test [1] was below 400 nM. Moreover, the half-inhibitory concentration (IC50) in test [2] and in test [3] was below 1000 nM in each case.

Consider `C[C@@H](Nc1nc(Cl)nc2c1CN(C(=O)c1cccc3c1OCCN3)C2)c1cc(N)cc(C(F)(F)F)c1` [Example 77], for which the equilibrium dissociation constant (Kd) in test [1] is above 400 nM. The half-maximal inhibitory concentration (IC50) in test [2] and in test [3] was below 1000 nM throughout.

`C[C@@H](Nc1nc(Cl)nc2c1CN(C(=O)c1ccnnc1)C2)c1cc(N)cc(C(F)(F)F)c1` [Example 78]: the equilibrium dissociation constant (Kd) in test [1] was below 400 nM. The half-maximal inhibitory concentration (IC50) in test [2] and in test [3] was below 1000 nM each time.

For the compound `C[C@@H](Nc1nc(Cl)nc2c1CN(C(=O)c1ccc3c(n1)CCNC3)C2)c1cc(N)cc(C(F)(F)F)c1` [Example 82], the dissociation constant Kd in test [1] was below 400 nM. For the same compound, the IC50 in test [2] and in test [3] was below 1000 nM in each case.

Turning to `C[C@@H](Nc1nc(Cl)nc2c1CN(C(=O)c1cccc(OC3CCOCC3)n1)C2)c1cc(N)cc(C(F)(F)F)c1` [Example 83], in test [1], the dissociation constant Kd is above 400 nM. The IC50 was above 1000 nM in test [2] and below 1000 nM in test [3].

In the case of `C[C@@H](Nc1nc(Cl)nc2c1CN(C(=O)c1ccc(N3CCOCC3)cn1)C2)c1cc(N)cc(C(F)(F)F)c1` [Example 84], in test [1], the Kd is below 400 nM. The IC50 was above 1000 nM in test [2] and below 1000 nM in test [3].

As to `C[C@@H](Nc1nc(Cl)nc2c1CN(C(=O)c1ncccc1C(F)(F)F)C2)c1cc(N)cc(C(F)(F)F)c1` [Example 86], the dissociation constant (Kd) in test [1] is below 400 nM. In addition, the IC50 in test [2] and in test [3] was below 1000 nM in each case.

Turning to `C[C@@H](Nc1nc(Cl)nc2c1CN(C(=O)c1cccc(Cl)n1)C2)c1cc(N)cc(C(F)(F)F)c1` [Example 87], the Kd in test [1] was above 400 nM. The figures for the IC50 in test [2] and in test [3] were above 1000 nM and below 1000 nM, respectively.

As for `C[C@@H](Nc1nc(Cl)nc2c1CN(C(=O)c1cnc3[nH]ccc3c1)C2)c1cc(N)cc(C(F)(F)F)c1` [Example 91], in test [1], the Kd was above 400 nM. Moreover, the values for the IC50 in test [2] and in test [3] were above 1000 nM and below 1000 nM, respectively.

For `C[C@@H](Nc1nc(Cl)nc2c1CN(C(=O)c1csc(C3CCNCC3)n1)C2)c1cc(N)cc(C(F)(F)F)c1` [Example 92], in test [1], the Kd was below 400 nM. Also, the IC50 in test [2] and in test [3] was above 1000 nM in each case.

`COC1(C(=O)N2Cc3nc(Cl)nc(N[C@H](C)c4cc(N)cc(C(F)(F)F)c4)c3C2)CCOCC1` [Example 93]: in test [1], the dissociation constant Kd is below 400 nM. For the same compound, the concentration for half-maximal inhibition (IC50) in test [2] and in test [3] was below 1000 nM each time.

With `C[C@@H](Nc1nc(Cl)nc2c1CN(C(=O)C1C3COCC31)C2)c1cc(N)cc(C(F)(F)F)c1` (stereo partly drawn) [Example 94], the dissociation constant Kd in test [1] is below 400 nM. Besides, the IC50 in test [2] and in test [3] was below 1000 nM throughout.

Source of the values: US20230096028A1, “BICYCLIC HETEROCYCLYL COMPOUNDS AND USES THEREOF” (Revolution Medicines, Inc., priority 2019, published 2023).
